Measured values reported in patent EP1561465A2, “Methods of use of fluoroquinolone compounds against bacteria” (LG Life Sciences, Ltd., priority 1999, dated 2001).
In brackets after ≈: the same amount, converted by molar mass. Several values for one entry are separate records, joined by “and”; a condition that tells them apart may be missing. Identical values can stand only once. Like-named read-outs stand apart in the source and are kept apart here.

Legend:
Format in all cases: cell-based
Streptococcus pyogenes = experiment: MIC by NCCLS broth microdilution, 1100 Japanese clinical isolates 1997-1998; settings: Streptococcus pyogenes (n=51)
Moraxella catarrhalis = experiment: MIC by NCCLS reference broth microdilution, 450 respiratory tract pathogens
[1] = system: Staphylococcus epidermidis; experiment: MIC by NCCLS broth microdilution, 1100 Japanese clinical isolates 1997-1998; settings: for MIC50 / MIC90: Staphylococcus epidermidis
Salmonella spp. = experiment: as above; settings: Salmonella spp. (n=29)
Haemophilus influenzae = experiment: MIC by two-fold serial agar dilution, Sensitivity Disk agar-N (Kitasato isolates); settings: Haemophilus influenzae (24)
Klebsiella pneumoniae = experiment: MIC by NCCLS reference broth microdilution, 450 respiratory tract pathogens; settings: for MIC50 / MIC90: Klebsiella pneumoniae
Staphylococcus aureus = experiment: MIC by NCCLS broth microdilution, 1100 Japanese clinical isolates 1997-1998; settings: for MIC: Staphylococcus aureus quinolone resistant
Enterococcus gallinarum = experiment: as above; settings: Enterococcus gallinarum, GALLINARUM, Enterococcus gallinarum (vanC1), read-out: MIC
[2] = system: Gram negative anaerobic pathogens and facultative anaerobic pathogens; experiment: MIC by agar dilution, Brucella HK agar with 5% laked sheep blood, anaerobic reference strains
Citrobacter freundii = experiment: MIC by NCCLS broth microdilution, 1100 Japanese clinical isolates 1997-1998; settings: Citrobacter freundii (n=39)
[3] = Staphylococcus epidermidis oxacillin resistant (n=43)
[4] = Staphylococcus epidermidis oxacillin susceptible (n=35)
[5] = extended spectrum β-lactamase negative (n = 30)
[6] = extended spectrum β-lactamase positive (n = 20)
[7] = Staphylococcus aureus oxacillin susceptible (n=41)
[8] = Staphylococcus aureus, Staphylococcus aureus oxacillin resistant (n=57)

C[C@@H]1CN(c2c(F)c(N)c3c(=O)c(C(=O)O)cn(C4CC4)c3c2F)C[C@H](C)N1 [Sparfloxacin, sparfloxacin]
MIC90 (Streptococcus pyogenes): 1 µg/mL (≈ 2.55 µM) | MIC Range (Streptococcus pyogenes): 0.25 to 1 µg/mL | MIC50 (Streptococcus pyogenes; read-out: MIC50): 0.5 µg/mL (≈ 1.27 µM) | MIC (Moraxella catarrhalis; Moraxella catarrhalis (n = 50)): 0.00375 to 0.06 µg/mL (≈ 0.00956 to 0.153 µM) | MIC50 (Moraxella catarrhalis; Moraxella catarrhalis (n = 50)): 0.015 µg/mL (≈ 0.0382 µM) | MIC90 (Moraxella catarrhalis; Moraxella catarrhalis (n = 50)): 0.03 µg/mL (≈ 0.0765 µM) | MIC (Moraxella catarrhalis; β-lactamase negative (n = 13)): 0.00375 to 0.06 µg/mL (≈ 0.00956 to 0.153 µM) | MIC50 (Moraxella catarrhalis; β-lactamase negative (n = 13)): 0.0075 µg/mL (≈ 0.0191 µM) | MIC90 (Moraxella catarrhalis; β-lactamase negative (n = 13)): 0.06 µg/mL (≈ 0.153 µM) | MIC (Moraxella catarrhalis; β-lactamase positive (n = 37)): 0.00375 to 0.06 µg/mL (≈ 0.00956 to 0.153 µM) | MIC50 (Moraxella catarrhalis; β-lactamase positive (n = 37)): 0.015 µg/mL (≈ 0.0382 µM) | MIC90 (Moraxella catarrhalis; β-lactamase positive (n = 37)): 0.03 µg/mL (≈ 0.0765 µM) | MIC Range [1, 3]: 0.032 to 16 µg/mL | MIC Range [1, 4]: 0.032 to 8 µg/mL | MIC50 [1, 3]: 4 µg/mL (≈ 10.2 µM) | MIC90 [1, 3]: 8 µg/mL (≈ 20.4 µM) | MIC50 [1, 4]: 0.063 µg/mL (≈ 0.161 µM) | MIC90 [1, 4]: 4 µg/mL (≈ 10.2 µM) | MIC50 (Salmonella spp.): 0.032 µg/mL (≈ 0.0815 µM) | MIC90 (Salmonella spp.): 0.063 µg/mL (≈ 0.161 µM) | MIC Range (Salmonella spp.): 0.016 to 0.063 µg/mL | MIC50 (Haemophilus influenzae): 0.016 µg/mL (≈ 0.0408 µM) | MIC90 (Haemophilus influenzae): 0.031 µg/mL (≈ 0.079 µM) | MIC Range (Haemophilus influenzae): ≤4 to 63 ng/mL | MIC Range (Klebsiella pneumoniae; Klebsiella pneumoniae (n = 50)): ≤7.5 to 1000 ng/mL | MIC50 (Klebsiella pneumoniae; Klebsiella pneumoniae (n = 50)): 0.06 µg/mL (≈ 0.153 µM) | MIC90 (Klebsiella pneumoniae; Klebsiella pneumoniae (n = 50)): 0.5 µg/mL (≈ 1.27 µM) | MIC50 (Klebsiella pneumoniae; [5]): 0.03 µg/mL (≈ 0.0765 µM) | MIC90 (Klebsiella pneumoniae; [5]): 0.12 µg/mL (≈ 0.306 µM) | MIC50 (Klebsiella pneumoniae; [6]): 0.5 µg/mL (≈ 1.27 µM) | MIC90 (Klebsiella pneumoniae; [6]): 0.5 µg/mL (≈ 1.27 µM) | MIC Range (Klebsiella pneumoniae; [5]): ≤7.5 to 250 ng/mL | MIC Range (Klebsiella pneumoniae; [6]): 30 to 500 ng/mL | MIC Range (Staphylococcus aureus; Staphylococcus aureus oxacillin resistant (n=57)): 0.032 to 128 µg/mL | MIC90 (Staphylococcus aureus; [7]): 0.125 µg/mL (≈ 0.319 µM) | MIC Range (Staphylococcus aureus; [7]): 0.032 to 1 µg/mL | MIC50 (Staphylococcus aureus; [8]): 4 µg/mL (≈ 10.2 µM) | MIC90 (Staphylococcus aureus; [8]): 32 µg/mL (≈ 81.5 µM) | MIC50 (Staphylococcus aureus; Staphylococcus aureus, Staphylococcus aureus oxacillin susceptible (n=41)): 0.063 µg/mL (≈ 0.161 µM) | MIC (Staphylococcus aureus; Staphylococcus aureus, strain TMS1* (spontaneous mutant resistant to ciprofloxacin)): 0.125 µg/mL (≈ 0.319 µM) | MIC (Staphylococcus aureus; Staphylococcus aureus, strain TMS3, read-out: MIC): 128 µg/mL (≈ 326 µM) | MIC (Staphylococcus aureus; Staphylococcus aureus, strain TMS4, read-out: MIC): 8 µg/mL (≈ 20.4 µM) | MIC (Staphylococcus aureus; Staphylococcus aureus, strain TMS5, read-out: MIC): 8 µg/mL (≈ 20.4 µM) | MIC (Staphylococcus aureus; Staphylococcus aureus, strain TMS6, read-out: MIC): 2 µg/mL (≈ 5.1 µM) | MIC (Enterococcus gallinarum; strain TMS1): 0.25 µg/mL (≈ 0.637 µM) | MIC (Enterococcus gallinarum; strain TMS2): 0.5 µg/mL (≈ 1.27 µM) | MIC (Enterococcus gallinarum; strain TMS3): 0.5 µg/mL (≈ 1.27 µM) | MIC (Enterococcus gallinarum; strain TMS4): 0.25 µg/mL (≈ 0.637 µM) | MIC [2]: 2 µg/mL and 0.125 µg/mL | MIC ([2]; Bacteroides eggerthii, ATCC27754, Bacteroides eggerthii ATCC27754, read-out: MIC): 4 µg/mL (≈ 10.2 µM) | MIC ([2]; Bacteroides fragilis, ATCC25285, Bacteroides fragilis ATCC25285, read-out: MIC): 1 µg/mL (≈ 2.55 µM) | MIC ([2]; Bacteroides fragilis, Bacteroides fragilis GA15562, read-out: MIC): 1 µg/mL (≈ 2.55 µM) | MIC ([2]; Bacteroides fragilis, Bacteroides fragilis GA-I0558, read-out: MIC): 1 µg/mL (≈ 2.55 µM) | MIC ([2]; Bacteroides fragilis, Bacteroides fragilis GA-I7955, read-out: MIC): 1 µg/mL (≈ 2.55 µM) | MIC ([2]; Bacteroides fragilis, Bacteroides fragilis GAI10150, read-out: MIC): 1 µg/mL (≈ 2.55 µM) | MIC ([2]; Bacteroides fragilis, Bacteroides fragilis GAI30079, read-out: MIC): 2 µg/mL (≈ 5.1 µM) | MIC ([2]; Bacteroides fragilis, Bacteroides fragilis GAI30144, read-out: MIC): 1 µg/mL (≈ 2.55 µM) | MIC ([2]; Bacteroides fragilis, NCTC10581, Bacteroides fragilis NCTC10581, read-out: MIC): 1 µg/mL (≈ 2.55 µM) | MIC ([2]; Bacteroides ovatus, ATCC8483, Bacteroides ovatus ATCC8483, read-out: MIC): 2 µg/mL (≈ 5.1 µM) | MIC ([2]; Bacteroides thetaiotaomicron, ATCC29741, Bacteroides thetaiotaomicron ATCC29741, read-out: MIC): 2 µg/mL (≈ 5.1 µM) | MIC ([2]; Bacteroides uniformis, ATCC8492, Bacteroides uniformis ATCC8492, read-out: MIC): 1 µg/mL (≈ 2.55 µM) | MIC ([2]; Bilophilla wadsworthia WAL7959, read-out: MIC): 0.5 µg/mL (≈ 1.27 µM) | MIC ([2]; Campylobacter gracilis, JCM8538, Campylobacter gracilis JCM8538, read-out: MIC): ≤ 0.03 µg/mL | MIC ([2]; Campylobacter ureolyticus, NCTC10941, Bacteroides ureolyticus NCTC10941, read-out: MIC): 0.06 µg/mL (≈ 0.153 µM) | MIC ([2]; Capnocytophaga ochracea, Capnocytophaga ochracea GAI5586, read-out: MIC): ≤ 0.03 µg/mL | MIC ([2]; Desullomonas pigra DSM749, read-out: MIC): 0.06 µg/mL (≈ 0.153 µM) | MIC ([2]; Fusobacterium necrophorum, ATCC25286, Fusobacterium necrophorum ATCC25286, read-out: MIC): 1 µg/mL (≈ 2.55 µM) | MIC ([2]; Fusobacterium nucleatum, ATCC25586, Fusobacterium nucleatum ATCC25586, read-out: MIC): 1 µg/mL (≈ 2.55 µM) | MIC ([2]; Fusobacterium varium, ATCC8501, Fusobacterium varium ATCC8501, read-out: MIC): 8 µg/mL (≈ 20.4 µM) | MIC ([2]; Hoylesella oralis, ATCC33269, Prevotella oralis ATCC33269, read-out: MIC): 4 µg/mL (≈ 10.2 µM) | MIC ([2]; Parabacteroides distasonis, ATCC8503, Bacteroides distasonis ATCC8503, read-out: MIC): 2 µg/mL (≈ 5.1 µM) | MIC ([2]; Phocaeicola vulgatus, ATCC8482, Bacteroides vulgatus ATCC8482, read-out: MIC): 2 µg/mL (≈ 5.1 µM) | MIC ([2]; Porphyromonas asaccharolytica, ATCC25260, Porphyromonas asaccharolytica ATCC25260, read-out: MIC): 0.25 µg/mL (≈ 0.637 µM) | MIC ([2]; Prevotella bivia, ATCC29303, Prevotella bivia ATCC29303, read-out: MIC): 8 µg/mL (≈ 20.4 µM) | MIC ([2]; Prevotella buccaeATCC33574, read-out: MIC): 2 µg/mL (≈ 5.1 µM) | MIC ([2]; Prevotella corporis, Prevotella corporis GAI91000, read-out: MIC): 2 µg/mL (≈ 5.1 µM) | MIC ([2]; Prevotella heparinolytica, ATCC35895, Prevotella heparinolytica ATCC35895, read-out: MIC): 0.5 µg/mL (≈ 1.27 µM) | MIC ([2]; Prevotella melaninogenica, Prevotella melaninogenica GAI5490, read-out: MIC): 2 µg/mL (≈ 5.1 µM) | MIC ([2]; Segatella oris, ATCC33573, Prevotella oris ATCC33573, read-out: MIC): 2 µg/mL (≈ 5.1 µM) | MIC ([2]; Sutterella wadsworthensis, ATCC51579, Sutterella wadsworthensis ATCC51579, read-out: MIC): 0.25 µg/mL (≈ 0.637 µM) | MIC ([2]; Veillonella dispar, ATCC17748): 0.125 µg/mL (≈ 0.319 µM) | MIC ([2]; Veillonella parvula, ATCC10790, Veillonella parvula ATCC10790, read-out: MIC): 0.25 µg/mL (≈ 0.637 µM) | MIC90 (Citrobacter freundii): 2 µg/mL (≈ 5.1 µM) | MIC Range (Citrobacter freundii): 0.016 to 4 µg/mL | MIC50 (Citrobacter freundii; read-out: MIC50): 0.25 µg/mL (≈ 0.637 µM)
